The supplement of paper PMC13207355

Assays:
Conditions in all cases: exposure time: 72 h
[1] = tested on: FT3469 (normal neural stem cell line); assay: surviving fraction (nuclei count normalised to DMSO); higher = more cells surviving (less toxic)
[2] = tested on: E28 (patient-derived glioblastoma stem cells of classical subtype); assay: as above
[3] = tested on: E31 (patient-derived glioblastoma stem cells of proneural subtype); assay: as above
[4] = tested on: E34 (patient-derived glioblastoma stem cells of proneural subtype); assay: as above
[5] = tested on: E57 (patient-derived glioblastoma stem cells of mesenchymal subtype); assay: as above
[6] = tested on: E21 (patient-derived glioblastoma stem cells of mesenchymal subtype); assay: as above
[7] = tested on: E13 (patient-derived glioblastoma stem cells of classical subtype); assay: as above
[8] = tested on: FT3469; assay: phenotypic distance (Euclidean, principal components) from DMSO controls (arbitrary units); higher = stronger morphological change
[9] = tested on: E28; assay: as above
[10] = tested on: E31; assay: as above
[11] = tested on: E34; assay: as above
[12] = tested on: E57; assay: as above
[13] = tested on: E21; assay: as above
[14] = tested on: E13; assay: as above
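Wherever phenotypic distance (Euclidean, principal components) from DMSO controls is given: cell Painting imaging in 384-well plates, CellProfiler features reduced to at least 20 principal components, Euclidean distance versus same-plate DMSO vehicle wells (0.1% v/v), median over six images per well.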
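Wherever surviving fraction (nuclei count normalised to DMSO) is given: nuclei counted by high-content imaging of Hoechst-stained cells in laminin-coated 384-well plates, relative to 0.1% DMSO vehicle wells, with staurosporine as cell-death control.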

Cn1ncnc1[C@H]1c2n[nH]c(=O)c3cc(F)cc(c23)N[C@@H]1c1ccc(F)cc1 [Talazoparib]
Conditions | phenotypic distance | surviving fraction
[1], 4.1 nM | – | 0.637
[1], 12.3 nM | – | 0.778
[1], 37 nM | – | 0.657
[1], 111.1 nM | – | 0.727
[1], 333.3 nM | – | 0.648
[1], 1000 nM | – | 0.636
[1], 3000 nM | – | 0.569
[2], 4.1 nM | – | 0.503
[2], 12.3 nM | – | 0.47
[2], 37 nM | – | 0.44
[2], 111.1 nM | – | 0.418
[2], 333.3 nM | – | 0.388
[2], 1000 nM | – | 0.395
[2], 3000 nM | – | 0.3
[3], 4.1 nM | – | 0.59
[3], 12.3 nM | – | 0.663
[3], 37 nM | – | 0.623
[3], 111.1 nM | – | 0.534
[3], 333.3 nM | – | 0.342
[3], 1000 nM | – | 0.265
[3], 3000 nM | – | 0.207
[4], 4.1 nM | – | 0.623
[4], 12.3 nM | – | 0.671
[4], 37 nM | – | 0.556
[4], 111.1 nM | – | 0.594
[4], 333.3 nM | – | 0.561
[4], 1000 nM | – | 0.503
[4], 3000 nM | – | 0.48
[5], 4.1 nM | – | 0.807
[5], 12.3 nM | – | 0.735
[5], 37 nM | – | 0.797
[5], 111.1 nM | – | 0.676
[5], 333.3 nM | – | 0.605
[5], 1000 nM | – | 0.313
[5], 3000 nM | – | 0.25
[6], 4.1 nM | – | 0.755
[6], 12.3 nM | – | 0.777
[6], 37 nM | – | 0.709
[6], 111.1 nM | – | 0.629
[6], 333.3 nM | – | 0.565
[6], 1000 nM | – | 0.403
[6], 3000 nM | – | 0.292
[7], 4.1 nM | – | 0.705
[7], 12.3 nM | – | 0.673
[7], 37 nM | – | 0.629
[7], 111.1 nM | – | 0.593
[7], 333.3 nM | – | 0.548
[7], 1000 nM | – | 0.461
[7], 3000 nM | – | 0.51
[8], 4.1 nM | 2.18 | –
[8], 12.3 nM | 1.53 | –
[8], 37 nM | 1.5 | –
[8], 111.1 nM | 1.69 | –
[8], 333.3 nM | 1.74 | –
[8], 1000 nM | 1.99 | –
[8], 3000 nM | 2.44 | –
[9], 4.1 nM | 3.02 | –
[9], 12.3 nM | 2.65 | –
[9], 37 nM | 3.31 | –
[9], 111.1 nM | 3.57 | –
[9], 333.3 nM | 3.51 | –
[9], 1000 nM | 3.37 | –
[9], 3000 nM | 4.36 | –
[10], 4.1 nM | 1.5 | –
[10], 12.3 nM | 1.58 | –
[10], 37 nM | 1.6 | –
[10], 111.1 nM | 2.21 | –
[10], 333.3 nM | 2.86 | –
[10], 1000 nM | 2.1 | –
[10], 3000 nM | 2.79 | –
[11], 4.1 nM | 3.39 | –
[11], 12.3 nM | 3.64 | –
[11], 37 nM | 3.15 | –
[11], 111.1 nM | 3.62 | –
[11], 333.3 nM | 3.3 | –
[11], 1000 nM | 2.98 | –
[11], 3000 nM | 3.55 | –
[12], 4.1 nM | 1.57 | –
[12], 12.3 nM | 1.96 | –
[12], 37 nM | 1.65 | –
[12], 111.1 nM | 2.9 | –
[12], 333.3 nM | 3.02 | –
[12], 1000 nM | 6.02 | –
[12], 3000 nM | 6.4 | –
[13], 4.1 nM | 4.97 | –
[13], 12.3 nM | 1.69 | –
[13], 37 nM | 2.19 | –
[13], 111.1 nM | 2.75 | –
[13], 333.3 nM | 3.08 | –
[13], 1000 nM | 4.5 | –
[13], 3000 nM | 5.21 | –
[14], 4.1 nM | 1.44 | –
[14], 12.3 nM | 1.97 | –
[14], 37 nM | 2.08 | –
[14], 111.1 nM | 2.45 | –
[14], 333.3 nM | 3.55 | –
[14], 1000 nM | 4.7 | –
[14], 3000 nM | 4.3 | –

Cn1nnc2c(C(N)=O)ncn2c1=O [Temozolomide]
Conditions | phenotypic distance | surviving fraction
[1], 4.1 nM | – | 1.01
[1], 12.3 nM | – | 0.927
[1], 37 nM | – | 1
[1], 111.1 nM | – | 0.936
[1], 333.3 nM | – | 1.18
[1], 1000 nM | – | 0.822
[1], 3000 nM | – | 1.04
[2], 4.1 nM | – | 0.981
[2], 12.3 nM | – | 0.95
[2], 37 nM | – | 1.11
[2], 111.1 nM | – | 1.02
[2], 333.3 nM | – | 1.06
[2], 1000 nM | – | 0.921
[2], 3000 nM | – | 0.979
[3], 4.1 nM | – | 0.882
[3], 12.3 nM | – | 0.904
[3], 37 nM | – | 0.833
[3], 111.1 nM | – | 1.02
[3], 333.3 nM | – | 1.02
[3], 1000 nM | – | 0.972
[3], 3000 nM | – | 0.803
[4], 4.1 nM | – | 0.988
[4], 12.3 nM | – | 0.89
[4], 37 nM | – | 1.01
[4], 111.1 nM | – | 0.947
[4], 333.3 nM | – | 1.06
[4], 1000 nM | – | 1.02
[4], 3000 nM | – | 1.07
[5], 4.1 nM | – | 0.946
[5], 12.3 nM | – | 0.909
[5], 37 nM | – | 0.95
[5], 111.1 nM | – | 0.958
[5], 333.3 nM | – | 0.951
[5], 1000 nM | – | 0.953
[5], 3000 nM | – | 0.931
[6], 4.1 nM | – | 0.919
[6], 12.3 nM | – | 0.974
[6], 37 nM | – | 0.955
[6], 111.1 nM | – | 0.899
[6], 333.3 nM | – | 0.883
[6], 1000 nM | – | 0.988
[6], 3000 nM | – | 0.862
[7], 4.1 nM | – | 0.934
[7], 12.3 nM | – | 0.862
[7], 37 nM | – | 0.932
[7], 111.1 nM | – | 0.981
[7], 333.3 nM | – | 0.909
[7], 1000 nM | – | 0.936
[7], 3000 nM | – | 1.04
[8], 4.1 nM | 1.43 | –
[8], 12.3 nM | 1.01 | –
[8], 37 nM | 0.484 | –
[8], 111.1 nM | 0.802 | –
[8], 333.3 nM | 0.852 | –
[8], 1000 nM | 0.793 | –
[8], 3000 nM | 0.513 | –
[9], 4.1 nM | 0.473 | –
[9], 12.3 nM | 0.496 | –
[9], 37 nM | 0.568 | –
[9], 111.1 nM | 0.62 | –
[9], 333.3 nM | 0.378 | –
[9], 1000 nM | 0.593 | –
[9], 3000 nM | 0.453 | –
[10], 4.1 nM | 1.06 | –
[10], 12.3 nM | 2.72 | –
[10], 37 nM | 0.892 | –
[10], 111.1 nM | 0.246 | –
[10], 333.3 nM | 0.629 | –
[10], 1000 nM | 0.411 | –
[10], 3000 nM | 0.89 | –
[11], 4.1 nM | 0.82 | –
[11], 12.3 nM | 0.663 | –
[11], 37 nM | 0.714 | –
[11], 111.1 nM | 0.388 | –
[11], 333.3 nM | 0.867 | –
[11], 1000 nM | 0.392 | –
[11], 3000 nM | 0.466 | –
[12], 4.1 nM | 0.77 | –
[12], 12.3 nM | 0.543 | –
[12], 37 nM | 0.294 | –
[12], 111.1 nM | 0.599 | –
[12], 333.3 nM | 0.816 | –
[12], 1000 nM | 0.662 | –
[12], 3000 nM | 1.29 | –
[13], 4.1 nM | 1.04 | –
[13], 12.3 nM | 0.604 | –
[13], 37 nM | 0.561 | –
[13], 111.1 nM | 0.642 | –
[13], 333.3 nM | 1.07 | –
[13], 1000 nM | 0.394 | –
[13], 3000 nM | 0.971 | –
[14], 4.1 nM | 0.92 | –
[14], 12.3 nM | 0.797 | –
[14], 37 nM | 0.786 | –
[14], 111.1 nM | 0.576 | –
[14], 333.3 nM | 0.8 | –
[14], 1000 nM | 0.525 | –
[14], 3000 nM | 0.666 | –
